We go through one cell line from the supplement of paper PMC10307832.

Assay in all cases: relative viability (nuclei count vs DMSO), 5 days (fraction); higher = more cells survive
Compound in experiment [1]: C1COCCN1C2=NC(=NC3=C2OC4=C3C=CC=N4)C5=CC(=CC=C5)NC(=O)C6=CN=C(C=C6)N + Cc1nc(NC(=O)N2CCC[C@H]2C(N)=O)sc1-c1ccnc(C(C)(C)C(F)(F)F)c1 [Alpelisib] (partner 2 µM)
The method, boiled down: (§1)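 A single step with final 0.05% Triton X-100, 1% formaldehyde and 1 ug/ml Hoechst fixed the cells and stained nuclei 5 days after treatment. Lung cancer cell lines in 1536-well plates had been treated by pin tool the day after seeding with one drug alone or a fixed anchor-drug dose plus five library-drug doses (not always all listed) in √10 steps, and nuclei were counted on 4× images. Relative viability is the ratio of nuclei in treated wells to nuclei in vehicle wells, taken as the median of duplicate plates.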

Compound in the experiment “Entinostat + Linsitinib”: Nc1ccccc1NC(=O)c1ccc(CNC(=O)OCc2cccnc2)cc1 [Entinostat] + C[C@]1(O)C[C@@H](c2nc(-c3ccc4ccc(-c5ccccc5)nc4c3)c3c(N)nccn32)C1 [Linsitinib] (partner 1 µM)
The method, boiled down:
as §1

Compound in the experiment “Entinostat + Pictilisib”: Nc1ccccc1NC(=O)c1ccc(CNC(=O)OCc2cccnc2)cc1 [Entinostat] + CS(=O)(=O)N1CCN(Cc2cc3nc(-c4cccc5[nH]ncc45)nc(N4CCOCC4)c3s2)CC1 [Pictilisib] (partner 1 µM)
In outline:
as §1

Compound in experiment [2]: C1COCCN1C2=NC(=NC3=C2OC4=C3C=CC=N4)C5=CC(=CC=C5)NC(=O)C6=CN=C(C=C6)N + Nc1nc2[nH]cc(CCc3ccc(C(=O)N[C@@H](CCC(=O)O)C(=O)O)cc3)c2c(=O)[nH]1 [Pemetrexed] (partner 0.2 µM)
The method, boiled down:
as §1

As for UMC-11, the relative viability was 1.06 in experiment [1] (first compound 0.02 µM); 1.04 in experiment [1] (first compound 0.06325 µM); 1.03 in experiment [1] (first compound 0.2 µM); 1.08 in experiment [1] (first compound 0.6325 µM); 0.593 in experiment [1] (first compound 2 µM); 1.11 with Entinostat + Linsitinib (first compound 0.02 µM). Moreover, the relative viability with Entinostat + Linsitinib (first compound 0.06325 µM) came out at 1; with Entinostat + Linsitinib (first compound 0.2 µM), 0.715; in the experiment with Entinostat + Linsitinib (first compound 0.6325 µM), 0.214; in the experiment with Entinostat + Linsitinib (first compound 2 µM), 0.142; with Entinostat + Pictilisib (first compound 0.02 µM), 0.865; with Entinostat + Pictilisib (first compound 0.06325 µM) it was 0.848. In addition, the relative viability in the experiment with Entinostat + Pictilisib (first compound 0.2 µM) was 0.836; with Entinostat + Pictilisib (first compound 0.6325 µM), 0.144; in the experiment with Entinostat + Pictilisib (first compound 2 µM), 0.136; in experiment [2] (first compound 0.02 µM), 0.772; in experiment [2] (first compound 0.06325 µM) it was 0.827; in experiment [2] (first compound 0.2 µM), 0.694. The relative viability was found to be 0.814 in experiment [2] (first compound 0.6325 µM) and 0.445 in experiment [2] (first compound 2 µM).
